Assay results published in paper PMC3597455 (International Journal of Oncology, 2013).

What was measured:
[1] = test system: RMA-S pulsed with mGPC3-1 peptide; experiment: Cytotoxicity assay; format: cell-based, mouse; details: mGPC3-1-specific CTL line against RMA-S pulsed with mGPC3-1 peptide; calcein AM, 4 h; non-pulsed RMA-S 2.2%
CD8-positive cells = experiment: IFN-γ ELISPOT after mGPC3-1 peptide vaccine in STAM mice; format: in vivo, STAM mice C57BL/6N-NASH; details: STAM mice immunized seven times with mGPC3-1 peptide vaccine; CD8-positive cells against RMA-S pulsed with mGPC3-1 peptide; n=3
[2] = test system: RMA-S pulsed with mGPC3-1 peptide; experiment: IFN-γ ELISPOT of mGPC3-1 peptide-specific CTL line against peptide-pulsed RMA-S; format: cell-based, mouse; details: CTL line 1×10^5, RMA-S 5×10^4 pulsed with 10 μg/ml peptide, 20 h
GPC3-specific CTLs = details: without an autoimmune response; cited from earlier work

With AMFKNNYPSL [mGPC3-1] the “% cytotoxicity” value [1] was 16.4%, the “average number of spots (IFN-γ ELISPOT)” value (CD8-positive cells) was 100±74.3 spots and the “IFN-γ release of CTL line to peptide-pulsed vs non-pulsed RMA-S (in words)” value [2] was “clearly released more IFN-γ”.

For FVGEFFTDV [GPC3_144–152], the “induction of GPC3-specific CTLs (in words)” value (GPC3-specific CTLs) is given as “can induce GPC3-specific CTLs”.

For EYILSLEEL [GPC3_298–306], the “induction of GPC3-specific CTLs (in words)” value (GPC3-specific CTLs) is listed as “can induce GPC3-specific CTLs”.
